According to ChEMBL document CHEMBL3885881, “DrugMatrix”:

Species: Rattus norvegicus
Test: DrugMatrix - Regimen: Daily Repeat
Type: toxicity, organism-based, Sprague-Dawley
Set-up: regimen Daily Repeat, gender Male, age 6-8 weeks
Conditions: in vivo, po, route oral GAVAGE, […]; for ABSOLUTE BASOPHIL / ABSOLUTE EOSINOPHIL / ABSOLUTE LYMPHOCYTE / ABSOLUTE MONOCYTE / ABSOLUTE SEGMENTED NEUTROPHIL / BASOPHIL / EOSINOPHIL / ERYTHROCYTE COUNT / HEMATOCRIT / HEMOGLOBIN / LEUKOCYTE COUNT / LYMPHOCYTE / MEAN CORPUSCULAR HEMOGLOBIN / MEAN CORPUSCULAR HEMOGLOBIN CONCENTRATION / MEAN CORPUSCULAR VOLUME / MONOCYTE / NEUTROPHIL / NUCLEATED RED BLOOD CELLS / PLATELET COUNT: tissue Blood; for ALANINE AMINOTRANSFERASE / ALBUMIN / ALKALINE PHOSPHATASE / ASPARTATE AMINOTRANSFERASE / BLOOD UREA NITROGEN / CARBON DIOXIDE / CHLORIDE / CHOLESTEROL / CREATINE PHOSPHOKINASE / CREATININE / GLUCOSE / LACTATE DEHYDROGENASE / LIPASE / PHOSPHORUS / POTASSIUM / SODIUM / TOTAL BILIRUBIN / TOTAL PROTEIN / URIC ACID: tissue Plasma
[1] = 6 mg/kg, 120 h, dose level Low, time 5 day
[2] = 74 mg/kg, 72 h, dose level High, time 3 day
[3] = 74 mg/kg, 120 h, dose level High, time 5 day

CO[C@H]1O[C@@H]2O[C@@]3(C)CC[C@H]4[C@H](C)CC[C@@H]([C@H]1C)[C@@]24OO3
ABSOLUTE BASOPHIL [1]: 0 CELLS/uL | ABSOLUTE EOSINOPHIL [1]: 153 CELLS/uL | ABSOLUTE LYMPHOCYTE [1]: 12396 CELLS/uL | ABSOLUTE MONOCYTE [1]: 197.67 CELLS/uL | ABSOLUTE SEGMENTED NEUTROPHIL [1]: 1920 CELLS/uL | BASOPHIL [1]: 0% | EOSINOPHIL [1]: 1% | ERYTHROCYTE COUNT [1]: 5.88 x10E6/uL | HEMATOCRIT [1]: 36.63% | HEMOGLOBIN [1]: 13.47 G/DL | LEUKOCYTE COUNT [1]: 14.67 x10E3/uL | LYMPHOCYTE [1]: 84.33% | MEAN CORPUSCULAR HEMOGLOBIN [1]: 22.93 pg | MEAN CORPUSCULAR HEMOGLOBIN CONCENTRATION [1]: 36.8 G/DL | MEAN CORPUSCULAR VOLUME [1]: 62.33 fL | MONOCYTE [1]: 1.33% | NEUTROPHIL [1]: 13.33% | NUCLEATED RED BLOOD CELLS [1]: 0 /100WBC | PLATELET COUNT [1]: 1198.67 x10E3/uL | ALANINE AMINOTRANSFERASE [1]: 52.67 u/L | ALBUMIN [1]: 4.37 G/DL | ALKALINE PHOSPHATASE [1]: 430.33 u/L | ASPARTATE AMINOTRANSFERASE [1]: 101 u/L | BLOOD UREA NITROGEN [1]: 17.67 mg/dL | CARBON DIOXIDE [1]: 23.33 mmol/L | CHLORIDE [1]: 105.67 MEQ/L | CHOLESTEROL [1]: 58.67 mg/dL | CREATINE PHOSPHOKINASE [1]: 552.33 u/L | CREATININE [1]: 0.16 mg/dL | GLUCOSE [1]: 160 mg/dL | LACTATE DEHYDROGENASE [1]: 887.67 u/L | LIPASE [1]: 8.33 u/L | PHOSPHORUS [1]: 11.77 mg/dL | POTASSIUM [1]: 6.02 MEQ/L | SODIUM [1]: 144.53 MEQ/L | TOTAL BILIRUBIN [1]: 0.17 mg/dL | TOTAL PROTEIN [1]: 5.93 G/DL | URIC ACID [1]: 1.83 mg/dL | ABSOLUTE BASOPHIL [2]: 0 CELLS/uL | ABSOLUTE EOSINOPHIL [2]: 390 CELLS/uL | ABSOLUTE LYMPHOCYTE [2]: 14550 CELLS/uL | ABSOLUTE MONOCYTE [2]: 453 CELLS/uL | ABSOLUTE SEGMENTED NEUTROPHIL [2]: 1407 CELLS/uL | BASOPHIL [2]: 0% | EOSINOPHIL [2]: 2.33% | ERYTHROCYTE COUNT [2]: 5.21 x10E6/uL | HEMATOCRIT [2]: 33.1% | HEMOGLOBIN [2]: 12.6 G/DL | LEUKOCYTE COUNT [2]: 16.8 x10E3/uL | LYMPHOCYTE [2]: 86.67% | MEAN CORPUSCULAR HEMOGLOBIN [2]: 24.23 pg | MEAN CORPUSCULAR HEMOGLOBIN CONCENTRATION [2]: 38.07 G/DL | MEAN CORPUSCULAR VOLUME [2]: 63.67 fL | MONOCYTE [2]: 2.67% | NEUTROPHIL [2]: 8.33% | NUCLEATED RED BLOOD CELLS [2]: 0 /100WBC | PLATELET COUNT [2]: 1173 x10E3/uL | ALANINE AMINOTRANSFERASE [2]: 46 u/L | ALBUMIN [2]: 4.13 G/DL | ALKALINE PHOSPHATASE [2]: 349.67 u/L | ASPARTATE AMINOTRANSFERASE [2]: 77.33 u/L | BLOOD UREA NITROGEN [2]: 16 mg/dL | CARBON DIOXIDE [2]: 27 mmol/L | CHLORIDE [2]: 103.33 MEQ/L | CHOLESTEROL [2]: 66.67 mg/dL | CREATINE PHOSPHOKINASE [2]: 259.33 u/L | CREATININE [2]: 0.23 mg/dL | GLUCOSE [2]: 144.67 mg/dL | LACTATE DEHYDROGENASE [2]: 331.33 u/L | LIPASE [2]: 9.33 u/L | PHOSPHORUS [2]: 10.07 mg/dL | POTASSIUM [2]: 6.54 MEQ/L | SODIUM [2]: 142.23 MEQ/L | TOTAL BILIRUBIN [2]: 0.2 mg/dL | TOTAL PROTEIN [2]: 5.63 G/DL | URIC ACID [2]: 1.17 mg/dL | ABSOLUTE BASOPHIL [3]: 0 CELLS/uL | ABSOLUTE EOSINOPHIL [3]: 257.33 CELLS/uL | ABSOLUTE LYMPHOCYTE [3]: 17040 CELLS/uL | ABSOLUTE MONOCYTE [3]: 413.67 CELLS/uL | ABSOLUTE SEGMENTED NEUTROPHIL [3]: 1822.33 CELLS/uL | BASOPHIL [3]: 0% | EOSINOPHIL [3]: 1.33% | ERYTHROCYTE COUNT [3]: 6.13 x10E6/uL | HEMATOCRIT [3]: 36.63% | HEMOGLOBIN [3]: 13.57 G/DL | LEUKOCYTE COUNT [3]: 19.53 x10E3/uL | LYMPHOCYTE [3]: 87% | MEAN CORPUSCULAR HEMOGLOBIN [3]: 22.17 pg | MEAN CORPUSCULAR HEMOGLOBIN CONCENTRATION [3]: 37.03 G/DL | MEAN CORPUSCULAR VOLUME [3]: 59.77 fL | MONOCYTE [3]: 2% | NEUTROPHIL [3]: 9.67% | NUCLEATED RED BLOOD CELLS [3]: 0.33 /100WBC | PLATELET COUNT [3]: 1300.33 x10E3/uL | ALANINE AMINOTRANSFERASE [3]: 55.33 u/L | ALBUMIN [3]: 4.3 G/DL | ALKALINE PHOSPHATASE [3]: 329 u/L | ASPARTATE AMINOTRANSFERASE [3]: 100 u/L | BLOOD UREA NITROGEN [3]: 16.33 mg/dL | CARBON DIOXIDE [3]: 25 mmol/L | CHLORIDE [3]: 102.67 MEQ/L | CHOLESTEROL [3]: 51.67 mg/dL | CREATINE PHOSPHOKINASE [3]: 790.67 u/L | CREATININE [3]: 0.21 mg/dL | GLUCOSE [3]: 171.67 mg/dL | LACTATE DEHYDROGENASE [3]: 649.67 u/L | LIPASE [3]: 9.67 u/L | PHOSPHORUS [3]: 12.37 mg/dL | POTASSIUM [3]: 5.73 MEQ/L | SODIUM [3]: 143.53 MEQ/L | TOTAL BILIRUBIN [3]: 0.13 mg/dL | TOTAL PROTEIN [3]: 5.8 G/DL | URIC ACID [3]: 1.73 mg/dL
